For experiment [1], the system named is MOLM-14 F691L (endogenous FLT3 ITD and transfected FLT3 F691L). The experiment can be described thus: MOLM-14 F691L cell proliferation assay (CellTiter-Glo). It counts as cell-based. To be noted: Homo sapiens, MOLM-14, 72 h; 3 d growth, GMean. In a few lines:
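MOLM-14 cells (FLT3 ITD) carrying D835Y or F691L, 1×10^4 cells/well, eight 1:3 dilutions from 1 μM final, 0.2% DMSO, 3 days at 37 °C, 5% CO2. Viability by CellTiter-Glo luminescence (ATP content); IC50 from concentration-response.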

The target in another experiment is T1, BA/F3-FLT3-ITD + D835Y (Homo sapiens, UniProt P36888, D835Y, cells depend on it, form not given).
T1 sequence (P36888 with tags, fused parts or gaps INS600HVDFREYEYD/D835Y): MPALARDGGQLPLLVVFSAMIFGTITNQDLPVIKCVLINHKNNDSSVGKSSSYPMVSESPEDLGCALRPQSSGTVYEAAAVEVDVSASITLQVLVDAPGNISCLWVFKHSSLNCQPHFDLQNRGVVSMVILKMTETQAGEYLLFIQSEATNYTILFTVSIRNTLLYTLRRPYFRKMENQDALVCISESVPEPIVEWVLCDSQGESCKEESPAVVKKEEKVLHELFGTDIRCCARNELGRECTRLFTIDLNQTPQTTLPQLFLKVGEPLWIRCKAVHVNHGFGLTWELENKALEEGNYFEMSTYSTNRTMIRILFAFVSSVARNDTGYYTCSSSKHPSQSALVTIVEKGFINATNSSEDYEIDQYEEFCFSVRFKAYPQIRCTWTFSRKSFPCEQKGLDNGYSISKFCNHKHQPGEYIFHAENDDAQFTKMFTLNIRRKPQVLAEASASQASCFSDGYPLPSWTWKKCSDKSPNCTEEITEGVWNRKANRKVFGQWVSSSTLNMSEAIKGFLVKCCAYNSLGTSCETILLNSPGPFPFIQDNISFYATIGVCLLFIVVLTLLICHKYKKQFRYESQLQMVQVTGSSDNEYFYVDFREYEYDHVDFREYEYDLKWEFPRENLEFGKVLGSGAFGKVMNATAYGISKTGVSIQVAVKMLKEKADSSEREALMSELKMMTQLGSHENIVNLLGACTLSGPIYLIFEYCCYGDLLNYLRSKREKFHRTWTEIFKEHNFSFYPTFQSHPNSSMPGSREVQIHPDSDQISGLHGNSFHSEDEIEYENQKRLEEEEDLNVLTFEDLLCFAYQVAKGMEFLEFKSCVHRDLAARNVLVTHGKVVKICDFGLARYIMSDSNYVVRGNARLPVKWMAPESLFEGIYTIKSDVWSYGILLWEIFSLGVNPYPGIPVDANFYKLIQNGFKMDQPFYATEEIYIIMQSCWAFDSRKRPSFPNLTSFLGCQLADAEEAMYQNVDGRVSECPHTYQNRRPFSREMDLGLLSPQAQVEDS
The experiment can be described thus: Engineered BA/F3 cell growth assay, FLT3 ITD/D835Y. It counts as cell-based, murine. As to conditions: 3 d growth. In a few lines:
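Murine Ba/F3 cells transfected with full-length FLT3 ITD/D835Y, grown without IL-3 so growth depends on FLT3. Seeded at 1×10^4 cells/well, 8-point 1:3 series to 1 μM top (0.2% DMSO), 3 days at 37 °C. CellTiter-Glo luminescence (ATP) versus concentration gave IC50.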

Structures are written as SMILES.

Results on 22 molecules are retold here after US10160747B2, “Compounds and methods for kinase modulation, and indications therefor” (Plexxikon Inc., priority 2016, dated 2018).

On to `Cn1cc(Nc2ncc(-c3ccc(CC(=O)Nc4ccc(C(C)(C)C#N)nc4)cc3)cn2)cn1` [Compound P-0146, N-[6-(1-cyano-1-methyl-ethyl)-3-pyridyl]-2-[4-[2-[(1-methylpyrazol-4-yl)amino]pyrimidin-5-yl]phenyl]acetamide], for which the IC50 (in general, the concentration needed to halve the response being measured) in experiment [1] was in the range of 0.0001 to 10 µM. On BA/F3-FLT3-ITD + D835Y, the GI50 (commonly the concentration giving 50% growth inhibition) fell in the range of 0.0001 to 10 µM.
In experiment [1], `Cc1cc(-c2cnc3[nH]c(-c4ccccc4)cc3c2)ccc1CC(=O)Nc1cccc(C(F)(F)F)c1` [Compound P-0001, 2-[2-methyl-4-(2-phenyl-1H-pyrrolo[2,3-b]pyridin-5-yl)phenyl]-N-[3-(trifluoromethyl)phenyl]acetamide] gave an IC50 of 0.0001 to 10 µM. In addition, the concentration for 50% growth inhibition (GI50) at BA/F3-FLT3-ITD + D835Y was 0.0001 to 10 µM.
Take `N#Cc1cc(-c2cc3cc(-c4ccc(CC(=O)Nc5ccnc(C(F)(F)F)c5)nc4)cnc3[nH]2)ccn1` [Compound P-0182, 2-[5-[2-(2-cyano-4-pyridyl)-1H-pyrrolo[2,3-b]pyridin-5-yl]-2-pyridyl]-N-[2-(trifluoromethyl)-4-pyridyl]acetamide]: in experiment [1], the IC50 lay in the range of 0.0001 to 10 µM. The GI50 at BA/F3-FLT3-ITD + D835Y is 0.0001 to 10 µM.
Turning to `COc1ccc(-c2cc3cc(-c4ccc(CC(=O)Nc5cncc(C(F)(F)F)c5)cc4F)cnc3[nH]2)cn1` [Compound P-0196, 2-[3-fluoro-4-[2-(6-methoxy-3-pyridyl)-1H-pyrrolo[2,3-b]pyridin-5-yl]phenyl]-N-[5-(trifluoromethyl)-3-pyridyl]acetamide], the concentration for half-maximal inhibition (IC50) in experiment [1] was 0.0001 to 10 µM. Further, the GI50 at BA/F3-FLT3-ITD + D835Y was in the range of 0.0001 to 10 µM.
On to `COCCn1cc(Nc2ncc(-c3ccc(CC(=O)Nc4cncc(C(F)(F)F)c4)cc3)cn2)cn1` [Compound P-0178, 2-[4-[2-[[1-(2-methoxyethyl)pyrazol-4-yl]amino]pyrimidin-5-yl]phenyl]-N-[5-(trifluoromethyl)-3-pyridyl]acetamide], for which the half-maximal inhibitory concentration (IC50) in experiment [1] lay within 0.0001 to 10 µM. Besides, at BA/F3-FLT3-ITD + D835Y, the GI50 was in the range of 0.0001 to 10 µM.
In the case of `Cn1cnc(Nc2ncc(-c3ccc(CC(=O)Nc4cc(C(F)(F)F)ccn4)c(F)c3)cn2)c1` [Compound P-0096, 2-[2-fluoro-4-[2-[(1-methylimidazol-4-yl)amino]pyrimidin-5-yl]phenyl]-N-[4-(trifluoromethyl)-2-pyridyl]acetamide], the IC50 in experiment [1] fell in the range of 0.0001 to 10 µM. In addition, the GI50 on BA/F3-FLT3-ITD + D835Y lay within 0.0001 to 10 µM.
For the molecule `Cn1cc(Nc2ncc(-c3ccc(CC(=O)Nc4cccnc4)cc3)cn2)cn1` [Compound P-0131, 2-[4-[2-[(1-methylpyrazol-4-yl)amino]pyrimidin-5-yl]phenyl]-N-(3-pyridyl)acetamide], the concentration for half-maximal inhibition (IC50) in experiment [1] is 0.0001 to 10 µM. In addition, the concentration for 50% growth inhibition (GI50) on BA/F3-FLT3-ITD + D835Y was in the range of 0.0001 to 10 µM.
For the molecule `Cn1cc(Nc2ncc(-c3ccc(CC(=O)Nc4cc(C(F)(F)F)ccn4)cc3)cn2)cn1` [Compound P-0139, 2-[4-[2-[(1-methylpyrazol-4-yl)amino]pyrimidin-5-yl]phenyl]-N-[4-(trifluoromethyl)-2-pyridyl]acetamide], the IC50 in experiment [1] was 0.0001 to 10 µM. For the same molecule, on BA/F3-FLT3-ITD + D835Y, the GI50 was 0.0001 to 10 µM.
Molecule `COc1ncc(NC(=O)Cc2ccc(-c3cnc(Nc4cn(C)cn4)nc3)cc2F)cc1C(F)(F)F` [Compound P-0101, 2-[2-fluoro-4-[2-[(1-methylimidazol-4-yl)amino]pyrimidin-5-yl]phenyl]-N-[6-methoxy-5-(trifluoromethyl)-3-pyridyl]acetamide] had a half-maximal inhibitory concentration (IC50) in experiment [1] of 0.0001 to 10 µM. For the same molecule, the 50% growth inhibitory concentration (GI50) at BA/F3-FLT3-ITD + D835Y was 0.0001 to 10 µM.
The molecule `Cn1cc(Nc2ncc(-c3ccc(CC(=O)Nc4cccc(C(F)(F)F)n4)cc3)cn2)cn1` [Compound P-0152, 2-[4-[2-[(1-methylpyrazol-4-yl)amino]pyrimidin-5-yl]phenyl]-N-[6-(trifluoromethyl)-2-pyridyl]acetamide] had a concentration for half-maximal inhibition (IC50) in experiment [1] of 0.0001 to 10 µM. Also, the GI50 at BA/F3-FLT3-ITD + D835Y fell in the range of 0.0001 to 10 µM.
Consider `Cn1cc(Nc2ncc(-c3ccc(CC(=O)Nc4ccc(S(C)(=O)=O)cc4)cc3)cn2)cn1` [Compound P-0156, 2-[4-[2-[(1-methylpyrazol-4-yl)amino]pyrimidin-5-yl]phenyl]-N-(4-methylsulfonylphenyl)acetamide], for which the IC50 in experiment [1] lay within 0.0001 to 10 µM. The 50% growth inhibitory concentration (GI50) on BA/F3-FLT3-ITD + D835Y was 0.0001 to 10 µM.
In experiment [1], `Cn1cc(Nc2ncc(-c3ccc(CC(=O)Nc4cccc(C(F)(F)F)c4)cc3)cn2)cn1` [Compound P-0141, 2-[4-[2-[(1-methylpyrazol-4-yl)amino]pyrimidin-5-yl]phenyl]-N-[3-(trifluoromethyl)phenyl]acetamide] displayed an IC50 of 0.0001 to 10 µM. For the same molecule, the 50% growth inhibitory concentration (GI50) on BA/F3-FLT3-ITD + D835Y is 0.0001 to 10 µM.
For the molecule `O=C(Cc1ccc(-c2cnc3[nH]c(-c4cnn(C(F)F)c4)cc3c2)c(F)c1)Nc1cncc(C(F)(F)F)c1` [Compound P-0197, 2-[4-[2-[1-(difluoromethyl)pyrazol-4-yl]-1H-pyrrolo[2,3-b]pyridin-5-yl]-3-fluoro-phenyl]-N-[5-(trifluoromethyl)-3-pyridyl]acetamide], in experiment [1], the IC50 was 0.0001 to 10 µM. In addition, the 50% growth inhibitory concentration (GI50) at BA/F3-FLT3-ITD + D835Y was in the range of 0.0001 to 10 µM.
In experiment [1], `COc1nn(C[C@H](C)O)cc1Nc1ncc(-c2ccc(CC(=O)Nc3cnc(C)c(C(F)(F)F)c3)cc2)cn1` [Compound P-0180, 2-[4-[2-[[1-[(2S)-2-hydroxypropyl]-3-methoxy-pyrazol-4-yl]amino]pyrimidin-5-yl]phenyl]-N-[6-methyl-5-(trifluoromethyl)-3-pyridyl]acetamide] yielded an IC50 of 0.0001 to 10 µM. Besides, the concentration for 50% growth inhibition (GI50) on BA/F3-FLT3-ITD + D835Y was in the range of 0.0001 to 10 µM.
Take `Cn1cc(Nc2ncc(-c3ccc(CC(=O)NCc4cncc(C(F)(F)F)c4)cc3)cn2)cn1` [Compound P-0161, 2-[4-[2-[(1-methylpyrazol-4-yl)amino]pyrimidin-5-yl]phenyl]-N-[[5-(trifluoromethyl)-3-pyridyl]methyl]acetamide]: the IC50 in experiment [1] lay in the range of 0.0001 to 10 µM. Also, the GI50 on BA/F3-FLT3-ITD + D835Y fell in the range of 0.0001 to 10 µM.
`Cn1cnc(Nc2ncc(-c3ccc(CC(=O)Nc4cc(C(C)(F)F)ccn4)cc3)cn2)c1` [Compound P-0169, N-[4-(1,1-difluoroethyl)-2-pyridyl]-2-[4-[2-[(1-methylimidazol-4-yl)amino]pyrimidin-5-yl]phenyl]acetamide] displayed an IC50 in experiment [1] of 0.0001 to 10 µM. At BA/F3-FLT3-ITD + D835Y, the GI50 was 0.0001 to 10 µM.
For `CCc1cncc(NC(=O)Cc2ccc(-c3cnc(Nc4cnn(C)c4)nc3)cc2F)c1` [Compound P-0111, N-(5-ethyl-3-pyridyl)-2-[2-fluoro-4-[2-[(1-methylpyrazol-4-yl)amino]pyrimidin-5-yl]phenyl]acetamide], the IC50 in experiment [1] lay within 0.0001 to 10 µM. Also, the GI50 at BA/F3-FLT3-ITD + D835Y lay in the range of 0.0001 to 10 µM.
`O=C(Cc1ccc(-c2cnc3[nH]c(-c4ccc(N5CCOCC5)nc4)cc3c2)cn1)Nc1ccnc(C(F)(F)F)c1` [Compound P-0183, 2-[5-[2-(6-morpholino-3-pyridyl)-1H-pyrrolo[2,3-b]pyridin-5-yl]-2-pyridyl]-N-[2-(trifluoromethyl)-4-pyridyl]acetamide] registered an IC50 in experiment [1] of 0.0001 to 10 µM. In addition, at BA/F3-FLT3-ITD + D835Y, the GI50 was 0.0001 to 10 µM.
For `O=C(Cc1ccc(-c2cnc3[nH]c(-c4ccccc4)cc3c2)cn1)Nc1ccnc(C(F)(F)F)c1` [Compound P-0005, 2-[5-(2-phenyl-1H-pyrrolo[2,3-b]pyridin-5-yl)-2-pyridyl]-N-[2-(trifluoromethyl)-4-pyridyl]acetamide], in experiment [1], the concentration for half-maximal inhibition (IC50) was 0.0001 to 10 µM. Moreover, at BA/F3-FLT3-ITD + D835Y, the GI50 lay within 0.0001 to 10 µM.
The molecule `Cn1cnc(Nc2ncc(-c3ccc(CC(=O)Nc4cnc(F)c(C(C)(F)F)c4)cc3)cn2)c1` [Compound P-0168, N-[5-(1,1-difluoroethyl)-6-fluoro-3-pyridyl]-2-[4-[2-[(1-methylimidazol-4-yl)amino]pyrimidin-5-yl]phenyl]acetamide] had an IC50 in experiment [1] of 0.0001 to 10 µM. Further, the 50% growth inhibitory concentration (GI50) at BA/F3-FLT3-ITD + D835Y is 0.0001 to 10 µM.
Turning to `Cn1cc(Nc2ncc(-c3ccc(CC(=O)Nc4cc(Cl)c(C5CC5)cn4)cc3)cn2)cn1` [Compound P-0164, N-(4-chloro-5-cyclopropyl-2-pyridyl)-2-[4-[2-[(1-methylpyrazol-4-yl)amino]pyrimidin-5-yl]phenyl]acetamide], the IC50 in experiment [1] lay within 0.0001 to 10 µM. The GI50 at BA/F3-FLT3-ITD + D835Y was 0.0001 to 10 µM.
In experiment [1], `COc1ccccc1CNC(=O)Cc1ccc(-c2cnc(Nc3cnn(C)c3)nc2)cc1` [Compound P-0160, N-[(2-methoxyphenyl)methyl]-2-[4-[2-[(1-methylpyrazol-4-yl)amino]pyrimidin-5-yl]phenyl]acetamide] yielded a 50% inhibitory concentration (IC50) of 0.0001 to 10 µM. The 50% growth inhibitory concentration (GI50) at BA/F3-FLT3-ITD + D835Y lay within 0.0001 to 10 µM.
